# Patent US20250304549A1, “HYDROXYAMIDE DERIVATIVE AND USE THEREOF” (SICHUAN HUIYU PHARMACEUTICAL CO., LTD., priority 2022, published 2025)
# Where a name gives a salt, the structure may show the parent alone.
# How the values were obtained:
# LSD1 = LSD1 (Homo sapiens (Human), UniProt O60341); assay: In vitro enzyme inhibition assay - LSD1 (HTRF); assay type: biochemical
# pan-HDAC = assay: In vitro enzyme inhibition assay - HDAC (HDAC-Glo I/II), pan-HDAC; assay type: biochemical
# In short: (§1)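 Eight compound concentrations (5-fold steps from a 1 mM DMSO stock) tested against pan-HDAC, HDAC1 and HDAC8 with HDAC-Glo I/II reagents, luminescence read-out. Percent inhibition normalized to no-inhibitor and no-enzyme wells; IC50 derived by four-parameter logistic fit.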
# HDAC8 = HDAC8 (Homo sapiens (Human), UniProt Q9BY41); assay: In vitro enzyme inhibition assay - HDAC (HDAC-Glo I/II), HDAC8; assay type: biochemical; details: read-out: HDAC IC50 (nM) HDAC 8
# In short: as §1
# NCI-H1417 cells = assay: In vitro cell inhibition assay - H1417 cell proliferation (CellTiter-Glo); assay type: cell-based; details: Homo sapiens, NCI-H1417, H1417 small cell lung cancer cell proliferation
# In short: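 Cells exposed to 8 compound concentrations (5-fold dilutions) in BEGM with 10% FBS for 7 days at 37° C., 5% CO2. Viable cells measured by CellTiter-Glo luminescence; inhibition versus no-inhibitor and no-cell controls, IC50 fitted.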
# NCI-H69 cells = assay: In vitro cell inhibition assay - NCI-H69 cell proliferation (CellTiter-Glo); assay type: cell-based; details: Homo sapiens, NCI-H69, H69 small cell lung cancer cell proliferation
# In short: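 Over 7 days at 37° C. and 5% CO2, cells grew in RPMI-640 supplemented with 20% FBS in the presence of eight 5-fold-spaced compound concentrations.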
# NCI-H526 cells = assay: In vitro cell inhibition assay - NCI-H526 cell proliferation (CellTiter-Glo); assay type: cell-based; details: Homo sapiens, NCI-H526, 120 h, H526 small cell lung cancer cell proliferation, 5 days
# Description: 6. In Vitro Cell Inhibition Assay—NCI-H526 Cell Proliferation
# The inhibitory effect of the compounds on cell proliferation was assessed by detecting the number of viable cells using CellTiter-Glo® reagent. NCI-H526 cells in the logarithmic growth phase were collected and inoculated into transparent bottom 96-well plates at a density 1×10^3 cells per well with 100 μL of medium, and incubated at 37° C., 5% CO2 overnight. The compounds were sequentially diluted in a 5-fold concentration gradient with DMSO to obtain 8 different concentrations. These were then diluted with RPMI-640 (containing 10% FBS) cell culture medium to obtain the compound working solution (2×), which was added to the cell supernatant at 100 μL per well. The incubation continued for 5 days at 37° C., 5% CO2. The plate was then removed and equilibrated at room temperature (25° C.) along with the CellTiter-Glo® mixing reagent for 10-30 minutes; 80 μL of the culture medium was carefully aspirated from each well, and 80 μL of CellTiter-Glo® reagent was added. The cells were thoroughly mixed with the CellTiter-Glo® mixing reagent using a microplate shaker for 2 min. and then incubated at room temperature for 10 min. The 96-well plate was subsequently placed on a multifunctional microplate reader to record the Luminescence values (RLU).
# The inhibition rate was calculated using the following formula: […]
# Note: ‘Negative’ refers to the group without inhibitors; ‘Blank’ refers to the group without cells.
# The IC50 value was determined by fitting the inhibition rate by GraphPad Prism software.
# Chain of HDAC8 (Q9BY41 whole entry): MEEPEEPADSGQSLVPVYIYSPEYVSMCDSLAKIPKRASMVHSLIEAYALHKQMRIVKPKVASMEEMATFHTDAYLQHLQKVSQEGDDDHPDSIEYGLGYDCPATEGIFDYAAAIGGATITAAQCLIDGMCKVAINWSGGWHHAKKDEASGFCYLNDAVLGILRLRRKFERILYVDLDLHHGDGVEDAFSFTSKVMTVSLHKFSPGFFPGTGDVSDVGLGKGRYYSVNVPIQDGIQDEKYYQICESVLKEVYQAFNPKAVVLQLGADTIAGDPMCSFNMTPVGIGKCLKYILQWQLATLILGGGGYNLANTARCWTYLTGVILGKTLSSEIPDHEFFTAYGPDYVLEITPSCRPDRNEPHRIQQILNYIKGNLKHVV
IC50 (LSD1),IC50 (pan-HDAC),IC50 (HDAC8),IC50 (NCI-H1417 cells),IC50 (NCI-H69 cells),IC50 (NCI-H526 cells),SMILES
0.69 nM,38.2 nM,508 nM,1.88 nM,245 nM,497 nM,"COc1ccc(-c2c(C#N)cc(N3CCC(NCc4ccc(/C=C/C(=O)NO)cc4)CC3)nc2-c2ccc(C#N)c(F)c2)cc1O [Example 176, (E)-3-(4-(((1-(4-cyano-6-(4-cyano-3-fluorophenyl)-5-(3-hydroxy-4-methoxyphenyl)pyridin-2-yl)piperidin-4-yl)amino)methyl)phenyl)-N-hydroxyacrylamide formate]"
25.4 nM,0.89 nM,,2.2 nM,1.84 nM,5.12 nM,"COc1ccc(-c2cnc(N3CCC(NCc4ccc(/C=C/C(=O)NO)cc4F)CC3)c(OC)c2-c2ccc(C#N)nc2)cc1O [Example 264, (E)-3-(4-(((1-(6-Cyano-5′-(3-hydroxy-4-methoxyphenyl)-3′-methoxy-[3,4′-bipyridin]-2′-yl)piperidin-4-yl)amino)methyl)-3-fluorophenyl)-N-hydroxyacrylamide formate]"
10.2 nM,0.45 nM,,5.09 nM,7.2 nM,5.85 nM,"COc1cc(F)c(-c2cnc(N3CCC(NCc4ccc(/C=C/C(=O)NO)cc4)CC3)c(OC)c2-c2ccc(C#N)nc2)cc1O [Example 265, (E)-3-(4-(((1-(6-Cyano-5′-(2-fluoro-5-hydroxy-4-methoxyphenyl)-3′-methoxy-[3,4′-bipyridin]-2′-yl)piperidin-4-yl)amino)methyl)phenyl)-N-hydroxyacrylamide formate]"
24.2 nM,0.16 nM,,2.09 nM,2.02 nM,2.35 nM,"COc1ccc(-c2cnc(N3CCC(NCc4ccc(/C=C/C(=O)NO)nc4)CC3)c(OC)c2-c2ccc(C#N)nc2)cc1O [Example 266, (E)-3-(5-(((1-(6-Cyano-5′-(3-hydroxy-4-methoxyphenyl)-3′-methoxy-[3,4′-bipyridin]-2′-yl)piperidin-4-yl)amino)methyl)pyridin-2-yl)-N-hydroxyacrylamide formate]"
147 nM,0.27 nM,,2.03 nM,1.58 nM,2.22 nM,"COc1ccc(-c2cnc(N3CCC(NCc4ccc(/C=C/C(=O)NO)cc4)CC3)c(F)c2-c2ccc(C#N)nc2)cc1O [Example 268, (E)-3-(4-(((1-(6-Cyano-3′-fluoro-5′-(3-hydroxy-4-methoxyphenyl)-[3,4′-bipyridin]-2′-yl)piperidin-4-yl)amino)methyl)phenyl)-N-hydroxyacrylamide formate]"

# More lines, now with the values behind:
SMILES,IC50 (LSD1),IC50 (pan-HDAC),IC50 (HDAC8),IC50 (NCI-H1417 cells),IC50 (NCI-H69 cells),IC50 (NCI-H526 cells)
"COc1ccc(-c2cnc(N3CCC(NCc4ccc(/C=C/C(=O)NO)cc4F)CC3)c(C#N)c2-c2ccc(C#N)c(F)c2)cc1O [Example 154, (E)-3-(4-(((1-(3-Cyano-4-(4-cyano-3-fluorophenyl)-5-(3-hydroxy-4-methoxyphenyl)pyridin-2-yl)piperidin-4-yl)amino)methyl)-3-fluorophenyl)-N-hydroxyacrylamide hydrochloride]",0.44 nM,4.3 nM,309 nM,1.41 nM,16.5 nM,21.7 nM
"COc1ccc(-c2cnc(N3CCC(NCc4ccc(/C=C/C(=O)NO)cc4Cl)CC3)c(C#N)c2-c2ccc(C#N)c(F)c2)cc1O [Example 156, (E)-3-(3-Chloro-4-((1-(3-cyano-4-(4-cyano-3-fluorophenyl)-5-(3-hydroxy-4-methoxyphenyl)pyridin-2-yl)piperidin-4-yl)amino)methyl) phenyl)-N-hydroxyacrylamide formate]",2.53 nM,8.88 nM,731 nM,6.64 nM,58.1 nM,80.4 nM
"N#Cc1ccc(-c2c(-c3ccc(Cl)c(O)c3)cnc(N3CCC(NCc4cnc(/C=C/C(=O)NO)nc4)CC3)c2C#N)cc1F [Example 159, (E)-3-(5-(((1-(5-(4-Chloro-3-hydroxyphenyl)-3-cyano-4-(4-cyano-3-fluorophenyl)pyridin-2-yl)piperidin-4-yl)amino)methyl)pyrimidin-2-yl)-N-hydroxyacrylamide hydrochloride]",1.82 nM,2.71 nM,83.5 nM,3.5 nM,17.9 nM,16.1 nM
"COc1ccc(-c2cnc(N3CCC(NCc4ccc(/C=C/C(=O)NO)c(C#N)c4)CC3)c(C#N)c2-c2ccc(C#N)c(F)c2)cc1O [Example 162, (E)-3-(2-Cyano-4-((1-(3-cyano-4-(4-cyano-3-fluorophenyl)-5-(3-hydroxy-4-methoxyphenyl)pyridin-2-yl)piperidin-4-yl)amino)methyl) phenyl)-N-hydroxyacrylamide formate]",0.4 nM,3.34 nM,209 nM,2.98 nM,21.7 nM,18.5 nM
"COc1ccc(-c2cnc(N3CCC(NCc4ccc(/C(C)=C/C(=O)NO)cc4)CC3)c(C#N)c2-c2ccc(C#N)c(F)c2)cc1O [Example 170, (E)-3-(4-(((1-(3-Cyano-4-(4-cyano-3-fluorophenyl)-5-(3-hydroxy-4-methoxyphenyl)pyridin-2-yl)piperidin-4-yl)amino)methyl)phenyl)-N-hydroxybut-2-enamide formate]",0.43 nM,2 nM,62.7 nM,1.28 nM,27.6 nM,27.5 nM
"COc1ccc(-c2cnc(N3CCC(NCc4ccc(/C=C(\F)C(=O)NO)cc4)CC3)c(C#N)c2-c2ccc(C#N)c(F)c2)cc1O [Example 171, (Z)-3-(4-(((1-(3-Cyano-4-(4-cyano-3-fluorophenyl)-5-(3-hydroxy-4-methoxyphenyl)pyridin-2-yl)piperidin-4-yl)amino)methyl)phenyl)-2-fluoro-N-hydroxyacrylamide formate]",0.55 nM,1.68 nM,53.1 nM,0.54 nM,14.5 nM,12.3 nM
"CC(C)(O)Cn1nnc2cc(-c3cnc(N4CCC(NCc5ccc(/C=C/C(=O)NO)cc5)CC4)c(C#N)c3-c3ccc(C#N)c(F)c3)ccc21 [Example 197, (E)-3-(4-(((1-(3-Cyano-4-(4-cyano-3-fluorophenyl)-5-(1-(2-hydroxy-2-methylpropyl)-1H-benzo[d][1,2,3]triazol-5-yl)pyridin-2-yl)piperidin-4-yl)amino)methyl)phenyl)-N-hydroxyacrylamide formate]",0.49 nM,7.48 nM,30.1 nM,3.59 nM,71.8 nM,193 nM
